# Assay results from ChEMBL document CHEMBL1201862, “PubChem BioAssay data set” (2004).
# Where “and” joins values, the source holds several entries; their conditions need not be identical. Equal values may be shown once. Calls of active or inactive are those of the source.
# Assays:
# [1] = target: T1, Oxysterols receptor LXR-beta (Homo sapiens, UniProt P55055); type: functional, cell-based
# T1 sequence (P55055 whole entry): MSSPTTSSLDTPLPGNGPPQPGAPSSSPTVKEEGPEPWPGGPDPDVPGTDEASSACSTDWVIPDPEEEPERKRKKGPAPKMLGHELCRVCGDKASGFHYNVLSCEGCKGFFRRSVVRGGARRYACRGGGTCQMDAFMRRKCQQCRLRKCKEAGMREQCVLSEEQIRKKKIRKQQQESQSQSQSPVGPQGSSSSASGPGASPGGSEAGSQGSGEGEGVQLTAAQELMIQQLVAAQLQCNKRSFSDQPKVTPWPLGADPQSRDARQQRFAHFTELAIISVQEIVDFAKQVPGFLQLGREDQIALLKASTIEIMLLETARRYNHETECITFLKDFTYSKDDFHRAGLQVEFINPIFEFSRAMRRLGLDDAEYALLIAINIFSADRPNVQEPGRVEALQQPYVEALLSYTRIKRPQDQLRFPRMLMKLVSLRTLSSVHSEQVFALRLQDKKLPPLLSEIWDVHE
# [2] = Luminescence-based cell-based high throughput dose response assay to identify activators of the DAF-12 from the parasite S. stercoralis (ssDAF-12).; type: functional
# [3] = target: T1, Oxysterols receptor LXR-beta; type: functional, cell-based; remark: listed apart in the source
# cells [4] = experiment: cells
# [5] = target: Arf-GAP with SH3 domain, ANK repeat and PH domain-containing protein 1 (Homo sapiens, UniProt Q9ULH1); type: functional;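 further: biochemical fluorescence polarization dose–response screen measuring inhibition of ASAP1; ASAP1 GAP domain stimulating GTP hydrolysis by truncated human ARF1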
# Arf-GAP with SH3 domain, ANK repeat and PH domain-containing protein 1, sequence (Q9ULH1 whole entry, the tested form may be a part): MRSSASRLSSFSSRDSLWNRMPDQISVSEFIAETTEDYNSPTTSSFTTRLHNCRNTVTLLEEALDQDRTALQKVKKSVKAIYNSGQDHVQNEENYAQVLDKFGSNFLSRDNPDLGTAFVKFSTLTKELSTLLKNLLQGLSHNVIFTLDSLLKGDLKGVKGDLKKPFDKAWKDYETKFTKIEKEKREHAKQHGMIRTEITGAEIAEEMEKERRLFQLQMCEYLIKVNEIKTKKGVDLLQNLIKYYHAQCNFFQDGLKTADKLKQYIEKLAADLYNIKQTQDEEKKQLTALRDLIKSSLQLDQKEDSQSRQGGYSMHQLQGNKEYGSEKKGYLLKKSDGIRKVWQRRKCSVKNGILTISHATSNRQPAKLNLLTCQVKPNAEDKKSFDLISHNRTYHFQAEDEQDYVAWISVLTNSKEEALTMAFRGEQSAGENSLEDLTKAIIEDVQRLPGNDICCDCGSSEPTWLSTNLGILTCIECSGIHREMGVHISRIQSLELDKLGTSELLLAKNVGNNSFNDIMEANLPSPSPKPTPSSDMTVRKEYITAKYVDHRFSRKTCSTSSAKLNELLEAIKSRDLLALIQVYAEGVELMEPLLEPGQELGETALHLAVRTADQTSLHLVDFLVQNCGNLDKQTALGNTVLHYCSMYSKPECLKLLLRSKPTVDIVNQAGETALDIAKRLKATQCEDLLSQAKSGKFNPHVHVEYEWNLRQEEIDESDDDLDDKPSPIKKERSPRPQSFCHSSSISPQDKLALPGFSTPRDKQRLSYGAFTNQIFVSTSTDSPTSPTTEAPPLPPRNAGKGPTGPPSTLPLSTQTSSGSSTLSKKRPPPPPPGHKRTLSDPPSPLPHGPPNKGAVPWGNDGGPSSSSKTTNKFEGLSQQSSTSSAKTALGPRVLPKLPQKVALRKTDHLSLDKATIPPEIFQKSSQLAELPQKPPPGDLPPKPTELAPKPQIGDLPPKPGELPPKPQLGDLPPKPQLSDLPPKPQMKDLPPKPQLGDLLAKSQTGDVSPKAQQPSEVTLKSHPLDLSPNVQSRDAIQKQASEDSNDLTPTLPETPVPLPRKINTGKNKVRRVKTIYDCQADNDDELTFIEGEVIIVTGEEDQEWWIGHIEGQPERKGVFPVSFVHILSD
# [6] = inhibitors of PGC1a acetylation in cells, dose response, cell-based, cherry-picked samples (AID 720514); type: functional;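 further: potency may reflect raised or lowered acetylation signal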
# [7] = luciferase signal loss, tTA control fusion, HeLa F-luc tTA cells, dry powder, counter-screen for HIV Env fusion inhibitor project, dose response (AID 687021); type: functional, cell-based
# [8] = CEM21 cell cytotoxicity, dose response, cytotoxicity control, plate reader, dry powder (AID 687026); type: functional, cell-based
# [9] = inhibitors of HIV Env-driven cell fusion, dose response, cherry-pick (AID 652057); type: functional, cell-based
# [10] = HIV Env cell-cell fusion inhibitors, dose response, HIV entry, plate reader, dry powder (AID 687023); type: functional, cell-based
# [11] = inhibitors of clade B AD8 Env fusion, dose response, cell-based, cherry-pick (AID 652062); type: functional;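 further: luciferase signal from cell-cell fusion driven by HIV-1 clade B AD8 Env; potency is for inhibitors of fusion seen as a drop in luminescence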
# [12] = ZM109 Env clade C HIV-1 fusion inhibitors, dose response, HeLa effector, CEM target cells, luciferase, cherry-pick (AID 652058); type: functional, cell-based
# [13] = off-target signal loss in HeLa-CEM21 co-culture – HeLa F-luc CTL cells, cherry-picked, counter-screen for HIV-1 Env fusion inhibitor project, dose response (AID 652040); type: functional, cell-based;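 further: potency for signal decrease marking cytotoxic or nonspecific inhibition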
# [14] = target: T2, Microphthalmia-associated transcription factor (Homo sapiens, UniProt O75030); experiment: TRPM1 promoter luciferase signal decrease, dose response, MITF inhibitor project, cell-based, SK-MEL-5, cherry-picked, set 3 (AID 493073); type: functional
# T2 sequence (O75030 whole entry): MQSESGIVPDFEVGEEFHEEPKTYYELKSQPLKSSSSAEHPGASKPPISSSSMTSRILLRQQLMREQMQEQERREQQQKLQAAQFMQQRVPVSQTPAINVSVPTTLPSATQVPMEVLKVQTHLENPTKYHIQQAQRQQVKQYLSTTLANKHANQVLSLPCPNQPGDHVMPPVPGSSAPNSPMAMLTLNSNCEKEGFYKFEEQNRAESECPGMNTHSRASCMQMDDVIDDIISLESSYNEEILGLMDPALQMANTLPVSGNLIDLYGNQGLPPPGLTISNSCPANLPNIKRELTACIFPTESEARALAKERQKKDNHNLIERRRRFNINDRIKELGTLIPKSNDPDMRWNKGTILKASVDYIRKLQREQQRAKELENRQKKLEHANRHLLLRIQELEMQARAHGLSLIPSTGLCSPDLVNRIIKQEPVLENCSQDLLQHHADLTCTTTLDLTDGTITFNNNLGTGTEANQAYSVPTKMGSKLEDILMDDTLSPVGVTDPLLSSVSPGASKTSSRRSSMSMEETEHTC
# [15] = target: T3, Matrix metalloproteinase-14 (Homo sapiens, UniProt P50281); experiment: Dose Response confirmation of uHTS hits for a small molecule inhibitors of MT1-MMP activation in a fluorescence assay set 1.; type: functional
# [16] = target: T3, Matrix metalloproteinase-14; experiment: SAR confirmation of uHTS hits for a small molecule inhibitors of MT1-MMP activation in a fluorescence assay.; type: functional
# Galanin receptor type 3 = Galanin receptor type 3 (Homo sapiens, UniProt O60755); experiment: Fluorescence-based cell-based primary high throughput dose response assay to identify antagonists of the Galanin Receptor 3 (GalR3).; type: functional
# Galanin receptor type 3, sequence (O60755 whole entry): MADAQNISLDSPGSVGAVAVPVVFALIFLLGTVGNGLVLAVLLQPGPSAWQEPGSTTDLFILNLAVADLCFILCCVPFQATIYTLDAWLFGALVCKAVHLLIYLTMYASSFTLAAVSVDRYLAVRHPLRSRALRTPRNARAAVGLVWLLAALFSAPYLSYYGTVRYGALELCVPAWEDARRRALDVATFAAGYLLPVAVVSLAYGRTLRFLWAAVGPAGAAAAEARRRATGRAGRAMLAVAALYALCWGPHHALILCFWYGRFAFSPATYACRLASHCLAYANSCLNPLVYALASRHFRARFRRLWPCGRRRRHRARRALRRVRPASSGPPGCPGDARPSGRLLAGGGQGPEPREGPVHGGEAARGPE
# cells [17] = type: functional, cell-based; conditions: HEK-CNG
# [18] = Counterscreen for antagonists of the human trace amine associated receptor 1 (hTAAR1): Fluorescence-based cell-based high throughput dose response assay to identify nonselective Ga16 antagonists.; type: functional
# [19] = target: T4, Trace amine-associated receptor 1 (Homo sapiens, UniProt Q96RJ0); experiment: Counterscreen for antagonists of the human trace amine associated receptor 1 (hTAAR1): Fluorescence-based cell-based high throughput dose response assay to identify TAAR1 Agonists.; type: functional
# T4 sequence (Q96RJ0 whole entry): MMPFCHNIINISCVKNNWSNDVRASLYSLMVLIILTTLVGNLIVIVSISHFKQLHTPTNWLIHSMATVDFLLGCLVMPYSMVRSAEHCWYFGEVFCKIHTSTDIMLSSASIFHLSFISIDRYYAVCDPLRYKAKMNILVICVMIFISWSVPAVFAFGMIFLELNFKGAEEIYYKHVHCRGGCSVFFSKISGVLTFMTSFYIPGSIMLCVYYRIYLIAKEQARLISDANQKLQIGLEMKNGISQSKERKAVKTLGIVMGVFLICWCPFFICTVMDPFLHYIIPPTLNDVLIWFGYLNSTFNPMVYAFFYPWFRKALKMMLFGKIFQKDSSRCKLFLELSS
# [20] = Counterscreen for […] of the human trace amine associated receptor 1 (TAAR1): Fluorescence-based cell-based high throughput dose response assay to identify nonselective Ga16 agonists.; type: functional
# [21] = target: T4, Trace amine-associated receptor 1; experiment: Fluorescence-based cell-based high throughput dose response assay to identify antagonists of the human trace amine associated receptor 1 (TAAR1).; type: functional
# [22] = target: Long-chain-fatty-acid--AMP ligase FadD28 (Mycobacterium tuberculosis, UniProt P9WQ59); experiment: Fluorescence polarization aasay to screen for inhibitors that compete for the binding of FadD28 to a bisubstrate Measured in Biochemical System Using Plate Reader - 2147-01_Inhibitor_Dose_CherryPick_Activity.; type: functional, Mycobacterium tuberculosis H37Rv
# Long-chain-fatty-acid--AMP ligase FadD28, sequence (P9WQ59 whole entry): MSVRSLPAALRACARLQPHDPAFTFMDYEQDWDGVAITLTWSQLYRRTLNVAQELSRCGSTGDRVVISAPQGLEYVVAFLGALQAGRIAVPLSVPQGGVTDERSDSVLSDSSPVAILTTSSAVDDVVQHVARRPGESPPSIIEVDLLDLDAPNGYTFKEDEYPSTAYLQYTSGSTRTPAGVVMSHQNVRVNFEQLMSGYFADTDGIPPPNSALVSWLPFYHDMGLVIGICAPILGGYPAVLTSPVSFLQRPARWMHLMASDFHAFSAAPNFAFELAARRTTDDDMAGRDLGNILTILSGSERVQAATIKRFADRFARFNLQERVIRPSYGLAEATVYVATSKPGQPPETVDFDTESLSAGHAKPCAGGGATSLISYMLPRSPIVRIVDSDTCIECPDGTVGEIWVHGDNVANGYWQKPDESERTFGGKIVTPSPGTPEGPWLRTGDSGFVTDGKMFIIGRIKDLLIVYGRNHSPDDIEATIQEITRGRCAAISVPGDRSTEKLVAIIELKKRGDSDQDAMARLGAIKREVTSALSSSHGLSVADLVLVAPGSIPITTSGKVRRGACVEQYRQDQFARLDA
structure (smiles),measurement,setting,value
CCOC(=O)CSc1nc(-c2ccncc2)ccc1C#N,EC50,[1],> 67.5 µM (inactive)
COc1ccc(Nc2nc(-c3ccccc3)cs2)cc1,IC50,[2],> 67.5 µM (inactive)
same,EC50,[3],> 67.5 µM (inactive)
same,EC50,cells [4],> 67.5 µM (inactive)
Clc1ccc(OCc2nn3c(-c4ccco4)nnc3s2)c(Cl)c1,IC50,[5],22.8 µM (inactive)
Cc1cc(-c2ccc(Cl)cc2)n2ncnc2n1,AC50,[6],29.8 µM (active)
Oc1ccc(CNc2ccccc2F)c2cccnc12,AC50,[7],> 70 µM (inactive)
same,AC50,[8],50.8 µM (active) and 64.1 µM (active)
same,AC50,[9],5.19 µM (active)
same,AC50,[10],> 70 µM (inactive)
same,AC50,[11],9.33 µM (active)
same,AC50,[12],1.58 µM (active)
same,AC50,[13],36 µM (active)
same,AC50,[14],15.1 µM (active)
COc1ccc(C)cc1Nc1nc(-c2c(C)[nH]c3ccccc23)cs1,IC50,[15],22.1 µM (inactive)
same,IC50,[16],> 80 µM (inactive)
Cc1nn(C)c(Nc2ccc(Br)cc2)c1Br,IC50,Galanin receptor type 3,0.155 µM (active)
same,EC50,cells [17],> 29.9 µM (inactive)
COc1ccc(-c2cc(C(=O)NCC(C)C)no2)cc1,IC50,[18],> 29.9 µM (inactive)
same,EC50,[19],> 29.9 µM (inactive)
same,EC50,[20],> 29.9 µM (inactive)
same,IC50,[21],> 29.9 µM (inactive)
O=C(CN1C(=O)NC2(CCOc3ccccc32)C1=O)c1ccc(Cl)cc1 (stereo not drawn),AC50,[22],47.9 µM (active)
